From US20240228536A1, “PEPTIDES FOR USE IN SKIN AND HAIR PIGMENTATION” (Follicum AB, priority 2020, published 2024) come the findings set out here.

Holding throughout (type): cell-based, human
The test system of experiment [1] is Pigmented skin equivalents (SEs), Melanoderms Mel-300-A (donor) and Mel-300-C-2 (donor). Description: Skin equivalent culture, photographic assessment of pigmentation. The method, then:
The skin equivalent surface area was 63.6 mm^2. Other equipment used included SMZ1000 Stereo Microscope (Nikon); UC30 Microscope Camera (Olympus); Phosphate-Buffered Saline (PBS); 6-well Tissue Culture Plates (Sarstedt); Image J software (https://imagej.nih.gov); Paintshop Photo Pro Software (Corel). The Melanoderms were prepared by carefully removing the agarose with sterile forceps and placing them in pre-warmed culture medium (37° C.) for an hour prior to treatment. The Melanoderms were then topically treated (without rubbing) with 25 μl of the various peptides, dissolved in dH2O at 10 mg/ml. […] The SEs were examined and removed from culture when skin darkening became visible. The pigmentation of the Melanoderms was macroscopically assessed by capturing high-resolution images using the Olympus microscope camera. […] They were then placed into a 6-well plate containing 1 ml PBS/well and images captured at ×8 magnification. The images were then processed using Image J & Paintshop Photo Pro software, to determine a quantifiable pixel area, which equated to the level of pigmentation present in the skin equivalent. The image brightness was normalised and the image gray-scaled using Paintshop Photo Pro, then Image J was used to threshold the image. The pigmentation was quantified by assessing total pixel area of pigmentation coverage in a fixed sample area. An ANOVA test (Dunnett's post-test) was used for the statistical analysis. Three different experiments were conducted. In the first, skin equivalents from both donors were included, and in experiment 2 and 3, only the […] donor was included. The SE of the […] donor from the first experiment received 5 treatments of 25 μl of peptide solution at 10 mg/ml; starting on the first day following receipt then on days 3, 5, 9 and 12. Peptides 1 (SEQ ID NO: 2), 3 (SEQ ID NO: 3) and 4 (SEQ ID NO: 4) were tested. The images were taken on Day 14. In experiment 2, peptide 3 and 4 were selected for testing to see if it had any efficacy in reducing melanin content or the distribution of melanin throughout the SE. This time, 5 SEs were used per treatment to improve statistical robustness. The experiment was continued for 20 days with treatments on days 0, 3, 7 and 12 and medium changes every other day. In experiment 3 a more highly pigmented SE ([…] donor melanocytes) was used and with an increased sample size with n=7 per treatment. […] Treatment was repeated on days 5, 9, 12 and 15 with medium changed every other day.

The next experiment has as its system skin equivalents (SEs). Nature of the experiment: H&E and Warthin Starry staining of skin equivalents. The conditions noted are these: day 20. The text has this:
Two skin equivalents (SEs) were used from one donor.
The analysis was achieved using the Warthin Starry assay using our recently published method (Joly-Tonetti et al 2016) and hematoxylin&eosin (H&E) staining.
The SEs were stained with Warthin Starry stain to visualise and quantify the melanin in sections. The SEs were removed from culture on day 20 and washed in PBS. They were then flash frozen in liquid nitrogen and mounted in OCT for sectioning. 10 μm sections were cut using a cryostat, the sections collected on slides and fixed in Acetone for 10 mins. The OCT was removed from the section by washing in acidulated water for 20 mins. The slides were then incubated in 1% silver nitrate solution for 1 hour at 43° C. […] The slides were stained for 2 mins then the staining was stopped by running the slides under hot tap water. Slides were then mounted using Histomount. Brightfield images were captured using a Nikon Eclipse microscope. Image analysis of the melanin density in sections was performed using Image J and densitometric thresholding. Results are presented in pixel intensity units. For the hematoxylin&eosin (H&E) staining, the SEs were flash frozen, sectioned and fixed as above. The slides were then washed in dH2O to remove the OCT for 20 mins. Haematoxylin was filtered using filter paper into a Coplin jar. Further Coplin jars were also prepared containing the following: Tap Water, Scott's Tap Water, 0.25% Eosin, 50% Ethanol, 70% Ethanol, 90% Ethanol, Ethanol and Histoclear. The slides were then placed into Haematoxylin for 2 mins, and then placed into tap water for 30 secs, Scott's Tap Water for 1 min & Eosin for 2 mins. The slides were then dehydrated through the Ethanol (1 min each) then placed into Histoclear for 2 mins and mounted using Histomount. Brightfield images were captured using a Nikon Eclipse microscope.

Experiment [2] has as its system Melanoderms Mel-300-A (donor). Nature of the experiment: Skin equivalent culture, peptides in formulation, photographic assessment of pigmentation. The conditions noted are these: 7 days; for pigmentation of SEs (visual assessment), response by concentration: 0.4%, 1% and 2% in formulation B, relative to vehicle controls; for pigmentation of SEs (visual assessment): in formulation B, 25 μl topical, vs formulation B only and peptide dissolved in water (10 mg/ml). How it is done: Pigmented skin equivalents (SEs), Melanoderms Mel-300-A (donor) were obtained from Mattek Ltd together with the associated media […]-113 and hanging well plates. The skin equivalent surface area was 63.6 mm^2. Other equipment used included SMZ1000 Stereo 10 Microscope (Nikon); UC30 Microscope Camera (Olympus); Sterile Phosphate-Buffered Saline (PBS, Thermofisher, UK); 12-well Tissue Culture Plates (Sarstedt). All incubations were carried out in a humidified incubator maintained at 37° C. with 5% CO2. Pure peptide (>99%) was obtained from Biomatik, USA as acetate salt. The Melanoderms were prepared by carefully removing the agarose with sterile forceps and placing in 5 ml pre-warmed culture medium in hanging plates and incubated overnight. […] The tissue surface was photographed using an Olympus camera system attached to an inverted microscope to record initial pigmentation levels. SEs were transferred back to hanging well plates containing 5 ml fresh media. Three SEs were removed to provide baseline day 0 controls for analysis using WS staining and qPCR analysis. SEs (n=3 per treatment) were topically treated for 7 days with 25 μl of the various peptide concentrations in formulations as prepared in Example 12 in parallel with relevant controls. […] Each formulation was applied to the surface of SEs using a positive displacement pipette and spread evenly using a sterile microbiological loop. SEs were maintained at 37° C., 5% CO2 in a humidified incubator with media refreshed every other day until the end of treatment. On day 7 SEs were removed from culture and formulation carefully removed using a sterile microbiological loop and the surface rinsed in PBS then blotted dry with a sterile cotton bud. […] The pigmentation of the Melanoderms was macroscopically assessed by capturing high-resolution images using the Olympus microscope camera.

[3] abbreviates: experiment 1, donor, 10 mg/ml, 20 days in culture.
The mark [4] stands for this setting: experiment 1, donor, 5 topical treatments of 25 μl at 10 mg/ml in dH2O, images Day 14.
Setting [5] is: experiment 3, more highly pigmented SE (donor), 10 mg/ml, n=7.

As to “Asn-Ala-Ala-Met (NAAM; (1)..(4) Peptide 4)”, the “pigmentation of skin equivalents (photographic assessment) compared to vehicle control” value is “somewhat darker and mottled appearance” in experiment [1] (setting [3]); “more pigmented compared to the vehicle” in experiment [1] (setting [4]); “increase in pigmentation compared to the vehicle control samples” in experiment [1] (experiment 2, donor, 10 mg/ml, 20 days, n=5); “increase in pigmentation” in experiment [1] (setting [5]). Moreover, the “melanin content and distribution in SE sections (Warthin Starry)” value with skin equivalents (SEs) (one of the donors (FIG. 3A)) is listed as “increased the melanin content in the SEs across all layers”; in the experiment on skin equivalents (SEs) (second donor (FIG. 3B-D)), “visibly increased melanin content”. Moreover, in experiment [2], the “pigmentation of SEs (visual assessment), response by concentration” value is reported as “approximately equal increase in pigmentation relative to vehicle controls”. Further, the “pigmentation of SEs (visual assessment)” value in experiment [2] is recorded as “more pigmented than the vehicle control”.

“Asn-Ala-His-Met (NAHM; (1)..(4) Peptide 1)”: the “pigmentation of skin equivalents (photographic assessment) compared to vehicle control” value in experiment [1] (setting [3]) was “somewhat darker and mottled appearance”; in experiment [1] (setting [4]), “more pigmented compared to the vehicle”; in experiment [1] (setting [5]) it was “increase in pigmentation”. For the same substance, the “melanin content and distribution in SE sections (Warthin Starry)” value in the experiment on skin equivalents (SEs) (second donor (FIG. 3B-D)) is given as “visibly increased melanin content”. The “pigmentation of SEs (visual assessment), response by concentration” value in experiment [2] is “highest response at the higher 1% and 2% concentrations”. The “pigmentation of SEs (visual assessment)” value in experiment [2] is reported as “more pigmented than the vehicle control”.
